Source: patent US20210070748A1, “INHIBITORS OF BRUTONS TYROSINE KINASE” (Pharmacyclics LLC, priority 2015, published 2021)

Experiments:
Format in all cases: biochemical
Conditions in all cases: D-compounds panel data; 1 μM ATP
[1] = biological target: T1, TEC (Homo sapiens, UniProt P42680); test: Inhibition of a panel of kinases, in vitro HotSpot kinase assay: TEC
T1 sequence (P42680 1-631): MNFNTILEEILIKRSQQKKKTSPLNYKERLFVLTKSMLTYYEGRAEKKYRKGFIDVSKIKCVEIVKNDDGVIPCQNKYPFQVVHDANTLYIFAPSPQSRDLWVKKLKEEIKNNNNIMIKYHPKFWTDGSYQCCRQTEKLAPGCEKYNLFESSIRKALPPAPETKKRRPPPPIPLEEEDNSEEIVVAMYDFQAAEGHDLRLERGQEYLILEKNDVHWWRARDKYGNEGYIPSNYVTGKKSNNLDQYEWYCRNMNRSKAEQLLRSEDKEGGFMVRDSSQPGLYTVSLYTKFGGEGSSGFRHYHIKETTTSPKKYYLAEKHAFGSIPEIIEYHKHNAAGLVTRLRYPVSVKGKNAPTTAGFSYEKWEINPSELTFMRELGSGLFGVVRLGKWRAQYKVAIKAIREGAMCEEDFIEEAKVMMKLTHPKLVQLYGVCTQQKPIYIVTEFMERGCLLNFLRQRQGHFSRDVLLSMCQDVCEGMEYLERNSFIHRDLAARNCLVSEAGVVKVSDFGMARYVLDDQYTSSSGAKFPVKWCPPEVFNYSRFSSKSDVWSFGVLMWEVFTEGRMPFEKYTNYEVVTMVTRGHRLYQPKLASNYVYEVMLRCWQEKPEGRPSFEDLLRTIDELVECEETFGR
Procedure: (§1) The degree of inhibition of a panel of kinases is determined using the in vitro HotSpot kinase assay (purified enzymes, ^33P-ATP, an appropriate substrate and 1 μM ATP).

[2] = biological target: T2, ITK (Homo sapiens, UniProt Q08881); test: Inhibition of a panel of kinases, in vitro HotSpot kinase assay: ITK
T2 sequence (Q08881 1-620): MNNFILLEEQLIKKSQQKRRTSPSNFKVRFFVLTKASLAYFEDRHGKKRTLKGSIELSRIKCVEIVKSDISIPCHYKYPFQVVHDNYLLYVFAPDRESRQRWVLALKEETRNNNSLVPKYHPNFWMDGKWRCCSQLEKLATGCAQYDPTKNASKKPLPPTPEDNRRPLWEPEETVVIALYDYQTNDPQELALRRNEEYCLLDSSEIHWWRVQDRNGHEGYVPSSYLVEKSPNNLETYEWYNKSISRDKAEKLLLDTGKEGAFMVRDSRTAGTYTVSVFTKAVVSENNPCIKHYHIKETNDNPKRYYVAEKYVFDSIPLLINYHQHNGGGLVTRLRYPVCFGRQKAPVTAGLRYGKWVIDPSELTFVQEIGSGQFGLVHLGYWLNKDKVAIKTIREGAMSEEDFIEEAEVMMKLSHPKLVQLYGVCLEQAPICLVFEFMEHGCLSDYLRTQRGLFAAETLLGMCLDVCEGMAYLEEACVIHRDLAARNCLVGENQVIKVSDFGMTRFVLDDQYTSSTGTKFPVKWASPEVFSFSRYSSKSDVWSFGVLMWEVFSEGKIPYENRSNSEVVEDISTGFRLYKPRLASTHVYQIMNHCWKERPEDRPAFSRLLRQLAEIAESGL
Procedure: as §1

[3] = biological target: EGFR (Homo sapiens, UniProt P00533); test: Inhibition of a panel of kinases, in vitro HotSpot kinase assay: EGFR
Procedure: as §1

Sequence of EGFR (P00533 25-1210): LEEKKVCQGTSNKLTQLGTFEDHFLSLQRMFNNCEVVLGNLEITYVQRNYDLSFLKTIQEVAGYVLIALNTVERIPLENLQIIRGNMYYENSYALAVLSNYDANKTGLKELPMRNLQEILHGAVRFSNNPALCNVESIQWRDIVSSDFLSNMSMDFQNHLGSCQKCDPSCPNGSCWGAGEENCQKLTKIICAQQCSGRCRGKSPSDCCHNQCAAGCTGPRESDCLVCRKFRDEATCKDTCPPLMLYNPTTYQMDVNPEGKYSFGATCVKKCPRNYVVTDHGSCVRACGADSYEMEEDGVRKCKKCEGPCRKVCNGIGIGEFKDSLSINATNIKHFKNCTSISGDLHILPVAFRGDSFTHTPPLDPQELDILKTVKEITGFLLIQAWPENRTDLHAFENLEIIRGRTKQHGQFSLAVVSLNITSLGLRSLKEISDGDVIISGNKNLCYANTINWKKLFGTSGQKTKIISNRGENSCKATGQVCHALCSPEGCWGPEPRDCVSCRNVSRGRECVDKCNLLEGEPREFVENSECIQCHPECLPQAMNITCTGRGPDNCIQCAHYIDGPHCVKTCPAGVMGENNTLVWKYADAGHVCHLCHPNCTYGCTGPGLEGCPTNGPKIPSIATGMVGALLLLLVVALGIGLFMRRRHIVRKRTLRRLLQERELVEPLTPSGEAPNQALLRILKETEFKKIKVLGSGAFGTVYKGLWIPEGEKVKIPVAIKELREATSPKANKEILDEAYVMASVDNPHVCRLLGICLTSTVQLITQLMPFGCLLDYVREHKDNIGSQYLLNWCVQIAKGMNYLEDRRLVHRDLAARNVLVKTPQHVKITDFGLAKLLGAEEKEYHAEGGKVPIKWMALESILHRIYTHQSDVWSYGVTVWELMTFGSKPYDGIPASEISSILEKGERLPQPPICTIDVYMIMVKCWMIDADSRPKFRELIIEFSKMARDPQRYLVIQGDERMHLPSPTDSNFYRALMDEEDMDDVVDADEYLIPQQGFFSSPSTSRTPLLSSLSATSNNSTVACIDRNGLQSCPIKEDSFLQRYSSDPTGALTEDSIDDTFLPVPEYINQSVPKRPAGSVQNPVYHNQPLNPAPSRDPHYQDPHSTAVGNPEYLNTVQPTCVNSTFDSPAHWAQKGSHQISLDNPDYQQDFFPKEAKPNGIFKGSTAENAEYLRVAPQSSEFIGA

Molecule `CC(C)n1nnc2cc(C(=O)N[C@@H]3CCCN(c4cnc(C(N)=O)c(Nc5cnn(C)c5)n4)[C@@H]3C)ccc21` [Example D-255, N-[(2R,3R)-1-{5-carbamoyl-6-[(1-methyl-i H-pyrazol-4-yl)amino]pyrazin-2-yl}-2-methylpiperidin-3-yl]-1-(propan-2-yl)-1H-1,2,3-benzotriazole-5-carboxamide] has an IC50 [1] of no more than 10 nM, an IC50 [2] of 100 to 1000 nM and an IC50 [3] of 1000 to 10000 nM.

`C[C@@H]1[C@H](NC(=O)c2coc(C3CC3)n2)CCCN1c1cnc(C(N)=O)c(Nc2cnn(C)c2)n1` [Example D-257, 5-[(2R,3R)-3-(2-cyclopropyl-1,3-oxazole-4-amido)-2-methylpiperidin-1-yl]-3-[(1-methyl-1H-pyrazol-4-yl)amino]pyrazine-2-carboxamide] was tested, and the IC50 [1] was no more than 10 nM, the IC50 [2] was 100 to 1000 nM and the IC50 [3] was 100 to 1000 nM.

`C[C@@H]1[C@H](NC(=O)c2ccc3c(c2)CCC(C)(C)O3)CCCN1c1cnc(C(N)=O)c(Nc2cnn(C)c2)n1` [Example D-258, 5-[(2R,3R)-3-(2,2-dimethyl-3,4-dihydro-2H-1-benzopyran-6-amido)-2-methylpiperidin-1-yl]-3-[(1-methyl-1H-pyrazol-4-yl)amino]pyrazine-2-carboxamide] gave an IC50 [1] of no more than 10 nM, an IC50 [2] of 100 to 1000 nM and an IC50 [3] of 1000 to 10000 nM.

Molecule `C[C@@H]1[C@H](NC(=O)c2ccc3cnn(C)c3c2)CCCN1c1cnc(C(N)=O)c(Nc2cnn(C)c2)n1` [Example D-259, N-[(2R,3R)-1-{5-carbamoyl-6-[(1-methyl-1H-pyrazol-4-yl)amino]pyrazin-2-yl}-2-methylpiperidin-3-yl]-1-methyl-1H-indazole-6-carboxamide] has an IC50 [1] of no more than 10 nM, an IC50 [2] of 100 to 1000 nM and an IC50 [3] of 1000 to 10000 nM.

`C[C@@H]1[C@H](NC(=O)c2ccc(C3(CO)CC3)cc2)CCCN1c1cnc(C(N)=O)c(Nc2cnn(C)c2)n1` [Example D-260, 5-[(2R,3R)-3-{4-[1-(hydroxymethyl)cyclopropyl]benzamido}-2-methylpiperidin-1-yl]-3-[(1-methyl-1H-pyrazol-4-yl)amino]pyrazine-2-carboxamide] was tested, and the IC50 [1] was no more than 10 nM, the IC50 [2] was 100 to 1000 nM and the IC50 [3] was 1000 to 10000 nM.

In the case of `Cc1nc2cc(C(=O)N[C@@H]3CCCN(c4cnc(C(N)=O)c(Nc5cnn(C)c5)n4)[C@@H]3C)ccc2[nH]1` [Example D-261, N-[(2R,3R)-1-{5-carbamoyl-6-[(1-methyl-1H-pyrazol-4-yl)amino]pyrazin-2-yl}-2-methylpiperidin-3-yl]-2-methyl-1H-1,3-benzodiazole-5-carboxamide], the IC50 [1] is reported as no more than 10 nM, the IC50 [2] is reported as 100 to 1000 nM and the IC50 [3] is reported as 100 to 1000 nM.

For `C[C@@H]1[C@H](NC(=O)c2ccc3[nH]cnc3c2)CCCN1c1cnc(C(N)=O)c(Nc2cnn(C)c2)n1` [Example D-262, N-[(2R,3R)-1-{5-carbamoyl-6-[(1-methyl-1H-pyrazol-4-yl)amino]pyrazin-2-yl}-2-methylpiperidin-3-yl]-1H-1,3-benzodiazole-5-carboxamide], the IC50 [1] was no more than 10 nM, the IC50 [2] was 100 to 1000 nM and the IC50 [3] was 1000 to 10000 nM.

In the case of `C[C@@H]1[C@H](NC(=O)c2cc3n(n2)CCC3)CCCN1c1cnc(C(N)=O)c(Nc2cnn(C)c2)n1` [Example D-263, 3-[(1-methyl-1H-pyrazol-4-yl)amino]-5-[(2R,3R)-2-methyl-3-{4H,5H,6H-pyrrolo[1,2-b]pyrazole-2-amido}piperidin-1-yl]pyrazine-2-carboxamide], the IC50 [1] is reported as no more than 10 nM, the IC50 [2] is reported as 100 to 1000 nM and the IC50 [3] is reported as 100 to 1000 nM.

Work on `C[C@@H]1[C@H](NC(=O)c2c[nH]c(C3CC3)n2)CCCN1c1cnc(C(N)=O)c(Nc2cnn(C)c2)n1` [Example D-264, 5-[(2R,3R)-3-(2-cyclopropyl-1H-imidazole-4-amido)-2-methylpiperidin-1-yl]-3-[(1-methyl-1H-pyrazol-4-yl)amino]pyrazine-2-carboxamide] yielded an IC50 [1] of no more than 10 nM, an IC50 [2] of 100 to 1000 nM and an IC50 [3] of 100 to 1000 nM.

`C[C@@H]1[C@H](NC(=O)c2ccc3nccn3c2)CCCN1c1cnc(C(N)=O)c(Nc2cnn(C)c2)n1` [Example D-266, 5-[(2R,3R)-3-(imidazo[1,2-a]pyridine-6-amido)-2-methylpiperidin-1-yl]-3-[(1-methyl-1H-pyrazol-4-yl)amino]pyrazine-2-carboxamide] gave an IC50 [1] of no more than 10 nM, an IC50 [2] of 10 to 100 nM and an IC50 [3] of 1000 to 10000 nM.

`C[C@@H]1[C@H](NC(=O)c2ccc3nn(C)cc3c2)CCCN1c1cnc(C(N)=O)c(Nc2cnn(C)c2)n1` [Example D-267, N-[(2R,3R)-1-{5-carbamoyl-6-[(1-methyl-1H-pyrazol-4-yl)amino]pyrazin-2-yl}-2-methylpiperidin-3-yl]-2-methyl-2H-indazole-5-carboxamide] showed an IC50 [1] of no more than 10 nM, an IC50 [2] of 100 to 1000 nM and an IC50 [3] of 100 to 1000 nM.

Molecule `C[C@@H]1[C@H](NC(=O)c2ccc(C(N)=O)cc2)CCCN1c1cnc(C(N)=O)c(Nc2cnn(C)c2)n1` [Example D-268, 1-N-[(2R,3R)-1-{5-carbamoyl-6-[(1-methyl-1H-pyrazol-4-yl)amino]pyrazin-2-yl}-2-methylpiperidin-3-yl]benzene-1,4-dicarboxamide] has an IC50 [1] of no more than 10 nM, an IC50 [2] of 100 to 1000 nM and an IC50 [3] of 100 to 1000 nM.

With `COCCN(C)Cc1cc(Nc2nc(N3CCC[C@@H](NC(=O)c4ccc(C5CC5)cc4)[C@H]3C)cnc2C(N)=O)sn1` [Example D-269, 5-[(2R,3R)-3-(4-cyclopropylbenzamido)-2-methylpiperidin-1-yl]-3-[(3-{[(2-methoxyethyl)(methyl)amino]methyl}-1,2-thiazol-5-yl)amino]pyrazine-2-carboxamide] the IC50 [1] was 100 to 1000 nM, the IC50 [2] was 100 to 1000 nM and the IC50 [3] was greater than 10000 nM.

For `COCCn1cc(Nc2nc(N3CCC[C@@H](NC(=O)c4ccc(C5CC5)cc4)[C@H]3C)cnc2C(N)=O)cn1` [Example D-270, 5-[(2R,3R)-3-(4-cyclopropylbenzamido)-2-methylpiperidin-1-yl]-3-{[1-(2-methoxyethyl)-1H-pyrazol-4-yl]amino}pyrazine-2-carboxamide], the IC50 [1] was 100 to 1000 nM, the IC50 [2] was 100 to 1000 nM and the IC50 [3] was 1000 to 10000 nM.

For `Cc1c(Nc2nc(N3CCC[C@@H](NC(=O)c4ccc(C5CC5)cc4)[C@H]3C)cnc2C(N)=O)cnn1C` [Example D-271, 5-[(2R,3R)-3-(4-cyclopropylbenzamido)-2-methylpiperidin-1-yl]-3-[(1,5-dimethyl-1H-pyrazol-4-yl)amino]pyrazine-2-carboxamide], the IC50 [1] was 1000 to 10000 nM, the IC50 [2] was greater than 10000 nM and the IC50 [3] was 1000 to 10000 nM.

Work on `Cc1nn(C)cc1Nc1nc(N2CCC[C@@H](NC(=O)c3ccc(C4CC4)cc3)[C@H]2C)cnc1C(N)=O` [Example D-272, 5-[(2R,3R)-3-(4-cyclopropylbenzamido)-2-methylpiperidin-1-yl]-3-[(1,3-dimethyl-1H-pyrazol-4-yl)amino]pyrazine-2-carboxamide] yielded an IC50 [1] of 1000 to 10000 nM, an IC50 [2] greater than 10000 nM and an IC50 [3] of 1000 to 10000 nM.

Molecule `CCn1cc(Nc2nc(N3CCC[C@@H](NC(=O)c4ccc(C5CC5)cc4)[C@H]3C)cnc2C(N)=O)cn1` [Example D-273, 5-[(2R,3R)-3-(4-cyclopropylbenzamido)-2-methylpiperidin-1-yl]-3-[(1-ethyl-1H-pyrazol-4-yl)amino]pyrazine-2-carboxamide] has an IC50 [1] of 10 to 100 nM, an IC50 [2] of 100 to 1000 nM and an IC50 [3] of 100 to 1000 nM.

With `C[C@@H]1[C@H](NC(=O)c2ccc(C3CC3)cc2)CCCN1c1cnc(C(N)=O)c(Nc2cnn(C3CCOCC3)c2)n1` [Example D-274, 5-[(2R,3R)-3-(4-cyclopropylbenzamido)-2-methylpiperidin-1-yl]-3-{[1-(oxan-4-yl)-1H-pyrazol-4-yl]amino}pyrazine-2-carboxamide] the IC50 [1] was no more than 10 nM, the IC50 [2] was 100 to 1000 nM and the IC50 [3] was 1000 to 10000 nM.

`C[C@@H]1[C@H](NC(=O)c2ccc(C3CC3)cc2)CCCN1c1cnc(C(N)=O)c(Nc2cnn(C(F)F)c2)n1` [Example D-275, 5-[(2R,3R)-3-(4-cyclopropylbenzamido)-2-methylpiperidin-1-yl]-3-{[1-(difluoromethyl)-1H-pyrazol-4-yl]amino}pyrazine-2-carboxamide] was tested, and the IC50 [1] was 10 to 100 nM, the IC50 [2] was 1000 to 10000 nM and the IC50 [3] was greater than 10000 nM.
